{"source": "paper PMC7719179", "about": "“Small molecule inhibition of Dynamin-dependent endocytosis targets multiple niche signals and impairs leukemia stem cells” (Nature Communications, 2020)", "key": {"[1]": {"test_system": "ETP12 and ALL8 patient-derived xenografts", "assay": "Xenograft models of human T-ALL (ETP12, ALL8): leukemic burden in blood, bone marrow, spleen; spleen weight", "assay_type": "in vivo", "experimental": "Patient-derived xenograft models were established as previously described[97],[98]. All experiments were pre-approved by the Human Research Ethics Committee of the University of New South Wales (UNSW), the UNSW Animal Care and Ethics Committee, the Alfred Health Human Ethics Committee and the AMREP Animal Ethics Committee. For transplantation assays, 10^6 splenocytes harvested from successfully engrafted primary human ETP-ALL or T-ALL xenografts were injected into nonobese diabetic/severe combined immunodeficient (NOD.Cg-Prkdc^scid, also termed NOD/SCID) or NOD/SCID/Il2rg^tm1wjl/SzJ (NSG) mice[99]. Moreover, 1.5 × 10^6 cells splenocytes harvested from successfully engrafted patient-derived AML xenografts were injected into nonobese diabetic/severe immunodeficient (NOD.Cg-Rag1^tm1MomIl2rg^tm1wjl/SzJ, also termed NRG) mice expressing human IL-3, human GM-CSF and human SCF from the SGM3 triple transgene (NRGS)[100]. Engraftment into recipients was monitored by FACS analysis of peripheral blood as previously described. […] Both males and females were used. […] Kaplan–Meier survival and statistical analyses were performed using GraphPad Prism. 6.0 software (GraphPad Software, Inc.).\nSpleen and sternum from recipients were collected, incubated at least 24 h in 3.7% neutral buffered formalin (pH 7.4), embedded in paraffin and sectioned at 8 μm onto Superforst-Plus slides. Samples were incubated with an anti-human CD45 antibody (Dako, #M0701) in Dako Autostainer Plus solution, then incubated with a sheep anti-mouse IgG conjugated to HRP and processed as per standard protocols using 3,3’ Diaminobenzidine staining (#ab64238, Abcam) for all immunoblots, as previously described. Samples were imaged and annotated using an Aperio ScanScope and software system (Leica Biosystems). […]\n(blue circles) and ALL8 (red open circles) 24 hours after the last dose of drugs was administered.\ntherapy. Median is indicated (bar) with Mean ± SEM indicated for ETP12 and ALL8, 2-way ANOVA\nperiod of administration is indicated in light grey."}, "[2]": {"test_system": "normal hematopoietic cells of WT mice", "assay": "Normal hematopoiesis in treated wild-type mice (thymus and bone marrow populations)", "assay_type": "in vivo"}, "[3]": {"test_system": "IL-7R and pStat5 in Lmo2^Tg DN3a cells", "assay": "IL-7R internalization assay and pStat5 in Lmo2^Tg DN3a cells after IL-7", "assay_type": "cell-based, mouse", "conditions": "+IL-7, 0.2 μM Dynole 34-2", "experimental": "Phosphoflow analysis was performed as previously described. Briefly, 2 × 10^6 cells stained for surface markers were subsequently resuspended into PBS 1× + 4% v/v paraformaldehyde and incubated for 10 min at 4 °C for fixation. Fixed cells were washed twice using PBS 1×, then resuspended in pre-chilled at −20 °C Perm Buffer III (BD Pharmingen) and incubated 30 min at 4 °C for permeabilization. Cells were washed twice using PBS 1× and incubated overnight at 4 °C in PBS 1× + 2% v/v fetal calf serum (FCS) with Cell Signalling purified antibodies (Genesearch Pty Ltd, Arundel QLD, Australia) against pSTAT5 (Tyr694; #9359), phospho-p38 MAPK (Thr180/Tyr182; #4511), phospho-p44/42 (Erk1/2; #9102), phospho-S6 (Ser235/236; #4856) and phospho-Akt (Ser473; #9271) or isotype control. […] Fluorescence-activated cell sorting (FACS) analysis was performed using LSRII and LSR Fortessa cytometers, following the gating strategies described in Supplementary Fig. 11. […]\nFor in vitro IL-7 stimulation assays, cells were starved in serum-free DMEM at 37 °C, then incubated with either vehicle or Dynole 34-2 or Ruxolitinib (INCB018424; #S1378, Selleckchem), or DAPT (GSI-IX; #S2215, Selleckchem) resuspended in DMSO for 1 h. […] The analysis was performed in triplicate and the mean fluorescence intensity (MFI) observed without stimulation was reported as 100%."}, "[4]": {"test_system": "pre-leukemic clones in DN3a cells", "assay": "Tcrβ gene rearrangement (clonality) in DN3a thymocytes of treated Lmo2^Tg mice", "assay_type": "in vivo, mouse", "experimental": "page 8: Supplementary Figure 4. […] therapy (VXL) or combination therapy was administered. Mean ± SEM, 2 -way ANOVA with Tukey’s […] poly-clonal Tcrβ gene rearrangements (pie charts) in these purified thymocytes (n = 5)."}}, "note": "Where “and” joins values, the source holds several entries; their conditions need not be identical. Equal values may be shown once."}
{"molecule": "CCCCCCCCNC(=O)C(C#N)=Cc1cn(CCCN(C)C)c2ccccc12", "note": "[Dynole 34-2, 2-Cyano-N-octyl-3-(1-(3-dimethylaminopropyl)-1H-indol-3-yl)-acrylamide]", "values": [{"measurement": "Absolute numbers human CD45+ cells", "setting": "[1]; ALL8, BM", "value": "6540000 and 4120000 and 6090000"}, {"measurement": "Proportion of hCD45+ (%) in peripheral blood", "setting": "[1]; ALL8, Time (weeks) 1", "value": 1.0, "unit": "%"}, {"measurement": "Proportion of hCD45+ (%) in peripheral blood", "setting": "[1]; ALL8, Time (weeks) 5", "value": 2.0, "unit": "%"}, {"measurement": "Proportion of hCD45+ (%) in peripheral blood", "setting": "[1]; ALL8, Time (weeks) 6", "value": 64.0, "unit": "%"}, {"measurement": "Absolute numbers human CD45+ cells", "setting": "[1]; ETP12, BM", "value": "4510000 and 5170000 and 3540000"}, {"measurement": "Proportion of hCD45+ (%) in peripheral blood", "setting": "[1]; ETP12, Time (weeks) 1", "value": "0.1% and 0.0% and 0.2%"}, {"measurement": "Proportion of hCD45+ (%) in peripheral blood", "setting": "[1]; ETP12, Time (weeks) 2", "value": "0.2% and 0.1% and 0.3% and 0.0%"}, {"measurement": "Proportion of hCD45+ (%) in peripheral blood", "setting": "[1]; ETP12, Time (weeks) 3", "value": "2.8% and 0.4% and 7.0% and 8.6% and 4.0% and 0.0% and 0.2%"}, {"measurement": "Proportion of hCD45+ (%) in peripheral blood", "setting": "[1]; ETP12, Time (weeks) 7", "value": 35.2, "unit": "%"}, {"measurement": "patient-derived leukemic cells in bone marrow and spleen, Dynole 34-2 combined with chemotherapy compared with chemotherapy alone", "setting": "[1]; ETP12 and ALL8 recipients, 24 h after last administration, in words", "value": "at least tenfold less"}, {"measurement": "leukemic cells in the peripheral blood, bone marrow and spleen, single agent", "setting": "[1]; ETP12 and ALL8 xenografts, result in words", "value": "significant reduction in leukemic cells"}, {"measurement": "Spleen weight", "setting": "[1]; PDX ALL8", "value": "0.116 g and 0.076 g and 0.075 g"}, {"measurement": "Spleen weight", "setting": "[1]; PDX ETP12", "value": "0.157 g and 0.109 g and 0.091 g"}, {"measurement": "Absolute numbers in the thymus: DN", "setting": "[2]; Supplementary Figure 5a-b", "value": "6020000 and 5580000 and 7110000"}, {"measurement": "Absolute numbers in the thymus: DN1", "setting": "[2]; Supplementary Figure 5a-b", "value": "511000 and 452000 and 707000"}, {"measurement": "Absolute numbers in the thymus: DN2", "setting": "[2]; Supplementary Figure 5a-b", "value": "47600 and 47100 and 78500"}, {"measurement": "Absolute numbers in the thymus: DN4", "setting": "[2]; Supplementary Figure 5a-b", "value": "3000000 and 2950000 and 3730000"}, {"measurement": "Absolute numbers in the thymus: DP", "setting": "[2]; Supplementary Figure 5a-b", "value": "102000000 and 86500000 and 114000000"}, {"measurement": "Absolute numbers in the thymus: SP", "setting": "[2]; Supplementary Figure 5a-b", "value": "11300000 and 9900000 and 12100000"}, {"measurement": "Absolute numbers in the bone marrow: B cells", "setting": "[2]; Supplementary Figure 5c-d", "value": "6210000 and 6630000 and 5010000"}, {"measurement": "Absolute numbers in the bone marrow: MPP2", "setting": "[2]; Supplementary Figure 5c-d", "value": "32800 and 19900 and 19000"}, {"measurement": "Absolute numbers in the bone marrow: MPP3", "setting": "[2]; Supplementary Figure 5c-d", "value": "31000 and 22000 and 23000"}, {"measurement": "Absolute numbers in the bone marrow: MPP4", "setting": "[2]; Supplementary Figure 5c-d", "value": "146000 and 93900 and 87200"}, {"measurement": "Absolute numbers in the bone marrow: Myeloid cells", "setting": "[2]; Supplementary Figure 5c-d", "value": "9680000 and 8860000 and 9360000"}, {"measurement": "Absolute numbers in the bone marrow: T cells", "setting": "[2]; Supplementary Figure 5c-d", "value": "1060000 and 911000 and 1020000"}, {"measurement": "effect on differentiated and progenitor cells in thymus and bone marrow", "setting": "[2]; non-tumour-bearing mice, result in words", "value": "no detrimental effect"}, {"measurement": "IL-7R (MFI)", "setting": "[3]", "value": "14813 MFI and 16581 MFI and 16466 MFI"}, {"measurement": "pStat5 (MFI)", "setting": "[3]", "value": "2583 MFI and 1903 MFI and 3336 MFI and 3007 MFI"}, {"measurement": "Clonality (%) for each sample: Oligoclonal", "setting": "[4]; mouse, in vivo", "value": "100% and 50%"}, {"measurement": "clonality of DN3a cells by Tcrβ rearrangement", "setting": "[4]; treated Lmo2^Tg mice, result in words", "value": "reduced monoclonality"}]}
